Patent US20040097408A1, “Compounds regulating cell proliferation and differentiation” (priority 2001, published 2004)

Experiments:
EpH-A6 cells = test: cell cycle phases by BrdU incorporation / FACS; assay type: cell-based, mouse; conditions: 3 μM F16, 30-36 hr, FIG. 5
Description: The percentage of cells in the different phases of the cell cycle was assessed by measuring BrdU incorporation into the DNA of the cells. BrdU incorporation into DNA of untreated or F16 treated (3 μM/30-36 hr) EpH-EV and EpH-A6 cells was assessed by FACS as follows. After F16 or mock treatment, the cells were pulsed with BrdU (20 μM) for 1 hour and then fixed in 70% ethanol at −20° C. overnight. Next morning cells were washed twice with 1×PBS and the DNA was denatured by incubation of the cells in 2N HCl/0.5% Triton X-100. The cells were then washed twice in 0.1M Na2B2O7, and once in PBS. The cells were resuspended in PBS, incubated with 20 μL of anti-BrdU/FITC(Becton Dickinson) for 1 hour and subsequently washed with 1×PBS and resuspended in PBS. RNA was digested with RNaseA (1 μL of 10 mg/mL stock) at 37° C. for 30 minutes. Finally, the cells were diluted with 1 mL of 5 μg/mL propidium iodide/PBS and incubated on ice for 15 minutes. The labeled cells were analyzed using the FACSCalibur (Becton Dickinson).

[1] = FACS analysis of F16 in tumor cell populations; assay type: in vivo, mouse; conditions: tumors of F16-treated nude mice
Description: Several tumor cell populations from F16 treated and untreated mice were analyzed by FACS, in order to determine the presence of F16 in the cells.

[2] = system: EpH4-EV and EpH4-A6 cells; test: intracellular colocalization with Mitotracker Red / Lysotracker Red / Hoescht; assay type: cell-based, mouse; conditions: 3 μM F16, 2 hours
Description: 2×10^4 EpH4-EV and EpH4-A6 cells were seeded in 6 well chamber slides. Next morning, cells were left untreated or treated with F16 at 3 μM for 2 hours. Cells were incubated with Hoescht stain for 30 minutes and then visualized under the microscope. Hoescht stain specifically stains the nuclei of cells. A mitochondrial specific stain, Mitotracker Red (Molecular Probes), was added to the medium to stain mitochondria, and Lysotracker Red to stain lysosomes and acidic compartments, according to manufacturer procedure. Hoescht stain was also included in the medium (together with the other stains). Cells were photographed under Axioskop (Zeiss) using a Spot Camera (Diagnostic Instruments).

[3] = system: F16-resistant normal mammary epithelial and human cancer cell lines; test: F16 accumulation in the presence of MDR-1 and MRP1 inhibitors; assay type: cell-based; conditions: 3 μM F16 with 50 μM verapamil/1 mM probenecid
Excerpt: To evaluate the effect of multi-drug resistance pumps on the F16-insensitive cells, inhibitors of MDR-1 and MRP1 were utilized (Lizardet al. (1994) Cell Biol Toxicol (10) 399-406).

A6 cells = test: electron-microscopy analysis of mitochondria; assay type: cell-based, mouse; conditions: 3 μM F16, abnormalities evident as early as 15 hr
Description: (§1) Electron-microscopy analysis was performed on untreated or F16-treated A6 cells, control cells and tumor cell lines SH1.1 and SMF to search for potential mitochondria lesions due to F16 accumulation. Cells grown in 35 mm dishes were left untreated or treated with 3 μM F16 for the indicated times, and fixed for 1 hr at room temperature in 0.1 M Cacodylate buffer containing 1.25% formaldehyde, 2.5% glutaraldehyde and 0.3% picric acid. Samples were then treated with 1% osmiuntetroxide/1.5% potassiumferrocyanide, followed by 1% uranyl acetate, dehydrated and epon-araldite embedded. Ultrathin sections were examined using a JEOL 1200EX microscope.

control cells = test: electron-microscopy analysis of mitochondria; assay type: cell-based, mouse; conditions: 3 μM F16
Description: as §1

EpH4-A6 cells = test: ATP levels (ATP Bioluminescence Assay); assay type: cell-based, mouse; conditions: 3 μM F16, 24 hr, FIG. 10
Description: One of the major roles of mitochondria is to supply energy to the cell. To assess alterations in mitochondrial function, ATP levels were determined in F16-treated cells by the luciferase-catalyzed ATP-dependent bioluminescent oxidation of luciferin using the ATP Bioluminescence Assay Kit (Roche). EpH4-EV and EpH4-A6 cells were grown in the absence or in the presence of 3 μM F16 for 15 hr and 24 hr. As a control A6 were treated with 5 μM FCCP (Sigma). Cells were then harvested, counted and equivalent numbers used for each determination, according to manufacturer's procedure. Each determination was done in triplicate, and the entire experiment was performed twice.

[4] = system: isolated mouse liver mitochondria; test: mitochondrial membrane potential by F16 fluorescence; assay type: biochemical; conditions: 1 μM and 50 μM F16
Description: Mitochondria were isolated from liver of Balb/c7 mice by standard differential centrifugation, and resuspended in isolation buffer (0.2 M sucrose, 10 mM Tris-MOPS pH 7.4, 0.1 mM EGTA-Tris, 0.1% delipidated BSA) (Costantini et al. (1995) Toxicology (99) 77-88). Protein concentration was determined by Bradford assay. For swelling determination, changes in side scatter at 545±2.5 nm of a 0.5 mg/ml suspension of mitochondria in experimental buffer (125 mM KCl, 10 mM Tris-MOPS pH 7.4, 1 mM Pi, 5 mM glutamate, 2.5 mM malate, 10 μM EGTA-Tris, pH 7.4) were monitored by using LS-50B spectrofluorimeter. To monitor changes in mitochondrial membrane potential, the intrinsic potentiometric properties of F16 were used. Mitochondria (0.5 mg/ml) were incubated in experimental buffer with the indicated concentrations of F16 and changes in F16 fluorescence intensity were measured, using a LS-50B spectrofluorimeter at 25° C., with excitation and emission wavelengths set at 415±2.5 nm and 520±5 nm, respectively. All reactions were performed at 25° C. and the instrument was equipped with magnetic stirring.
The fluorescent properties of F16 were used for this purpose. It was determined whether the fluorescence of a 1 μM solution of F16 changed in response to mitochondrial energization and depolarization. […] Preincubation of mitochondria with the PTP inhibitor CsA only partially blunted this effect.

mice = test: tolerability of intraperitoneal F16 in mice

SMILES: C[n+]1ccc(/C=C/c2c[nH]c3ccccc23)cc1.[I-] [F16]
- percentage of cells in G1 phase (EpH-A6 cells): increase
- percentage of cells in the S phase (EpH-A6 cells): dramatic decrease
- presence of F16 in tumor cells (fluorescent signal, FACS) [1]: delivered to the tumor cell mass
- intracellular localization of F16 staining [2]: overlapped with the mitochondrial staining, but not with the lysosomal staining
- F16 mitochondrial accumulation with MDR-1/MRP1 inhibitors [3]: did not result in F16 mitochondrial accumulation
- mitochondrial ultrastructure (A6 cells): progressive swelling and disruption of mitochondrial integrity
- mitochondrial ultrastructure (control cells): no abnormalities in mitochondria morphology
- ATP pool (EpH4-A6 cells): significant depletion in the ATP pool
- mitochondrial depolarization [4]: directly causes mitochondrial depolarization
- deaths after injection (mice; 50 mg/kg, a few hours after the injection): one mouse out of 5
- maximum tolerable dose (MTD) (mice; intraperitoneal injection, mice): ~50 mg/kg
